Results on one compound are retold here after publication PMC12335474 (Communications Biology, 2025).

For experiment [1], the target named is MLCK (myosin light chain kinase, smooth muscle) (Homo sapiens, UniProt Q15746, N1725A). The experiment can be described thus: SPR. Format: binding.
Experiment [2] concerns the target MLCK (myosin light chain kinase, smooth muscle) (Homo sapiens, UniProt Q15746). The experiment can be described thus: SPR. Type of experiment: binding.

Sequence of MLCK (myosin light chain kinase, smooth muscle) (Homo sapiens, UniProt Q15746) (Q15746 whole entry): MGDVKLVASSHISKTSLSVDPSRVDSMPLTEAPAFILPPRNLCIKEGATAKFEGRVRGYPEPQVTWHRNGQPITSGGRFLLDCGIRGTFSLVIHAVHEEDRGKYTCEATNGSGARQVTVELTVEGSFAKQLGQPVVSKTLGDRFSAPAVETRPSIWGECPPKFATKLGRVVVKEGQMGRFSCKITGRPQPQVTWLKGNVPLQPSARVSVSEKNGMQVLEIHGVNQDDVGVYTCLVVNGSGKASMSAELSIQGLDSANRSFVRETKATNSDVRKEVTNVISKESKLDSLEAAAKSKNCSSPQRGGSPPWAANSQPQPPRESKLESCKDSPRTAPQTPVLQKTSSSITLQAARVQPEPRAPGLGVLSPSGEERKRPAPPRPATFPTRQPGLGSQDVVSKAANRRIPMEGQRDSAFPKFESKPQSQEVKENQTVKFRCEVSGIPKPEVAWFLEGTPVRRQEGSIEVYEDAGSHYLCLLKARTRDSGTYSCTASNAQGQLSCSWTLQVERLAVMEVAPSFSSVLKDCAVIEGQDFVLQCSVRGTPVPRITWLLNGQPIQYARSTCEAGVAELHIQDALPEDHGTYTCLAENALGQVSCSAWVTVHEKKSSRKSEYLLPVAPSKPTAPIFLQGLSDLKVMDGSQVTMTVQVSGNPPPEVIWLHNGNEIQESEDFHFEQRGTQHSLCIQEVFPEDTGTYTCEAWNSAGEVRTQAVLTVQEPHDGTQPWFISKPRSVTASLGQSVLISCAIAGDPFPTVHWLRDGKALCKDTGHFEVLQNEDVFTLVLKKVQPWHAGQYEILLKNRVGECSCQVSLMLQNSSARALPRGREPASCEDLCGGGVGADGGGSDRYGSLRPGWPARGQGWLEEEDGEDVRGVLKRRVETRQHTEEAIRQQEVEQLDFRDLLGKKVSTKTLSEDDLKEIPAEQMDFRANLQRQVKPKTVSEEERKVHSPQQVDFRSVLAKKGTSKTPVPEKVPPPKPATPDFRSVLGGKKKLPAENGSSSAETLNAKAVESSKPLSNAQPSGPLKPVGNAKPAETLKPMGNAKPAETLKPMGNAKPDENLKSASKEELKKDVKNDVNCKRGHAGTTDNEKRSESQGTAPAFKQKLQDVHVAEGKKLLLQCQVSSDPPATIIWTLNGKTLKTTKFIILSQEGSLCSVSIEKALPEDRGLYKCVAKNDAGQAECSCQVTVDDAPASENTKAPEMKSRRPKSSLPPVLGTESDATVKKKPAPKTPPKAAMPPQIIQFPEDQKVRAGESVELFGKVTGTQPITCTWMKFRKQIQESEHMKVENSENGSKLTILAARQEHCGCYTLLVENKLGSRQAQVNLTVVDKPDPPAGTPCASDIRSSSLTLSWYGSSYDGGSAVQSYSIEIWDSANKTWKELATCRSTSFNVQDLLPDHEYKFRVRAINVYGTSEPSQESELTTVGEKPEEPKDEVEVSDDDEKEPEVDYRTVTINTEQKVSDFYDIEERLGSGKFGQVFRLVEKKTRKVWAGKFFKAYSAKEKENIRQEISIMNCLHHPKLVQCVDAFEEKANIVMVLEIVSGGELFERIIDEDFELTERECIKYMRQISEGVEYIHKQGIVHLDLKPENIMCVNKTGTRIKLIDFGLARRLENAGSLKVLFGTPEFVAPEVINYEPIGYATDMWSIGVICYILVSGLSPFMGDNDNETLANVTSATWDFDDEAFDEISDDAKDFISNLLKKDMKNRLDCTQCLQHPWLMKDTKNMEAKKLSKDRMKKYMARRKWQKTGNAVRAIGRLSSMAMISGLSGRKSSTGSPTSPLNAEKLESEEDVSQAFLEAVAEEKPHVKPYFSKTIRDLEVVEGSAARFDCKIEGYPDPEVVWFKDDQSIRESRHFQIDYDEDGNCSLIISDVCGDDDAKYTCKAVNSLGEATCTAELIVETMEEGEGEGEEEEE
Sequence of MLCK (myosin light chain kinase, smooth muscle) (Homo sapiens, UniProt Q15746, N1725A) (Q15746 923-1914 N1725A): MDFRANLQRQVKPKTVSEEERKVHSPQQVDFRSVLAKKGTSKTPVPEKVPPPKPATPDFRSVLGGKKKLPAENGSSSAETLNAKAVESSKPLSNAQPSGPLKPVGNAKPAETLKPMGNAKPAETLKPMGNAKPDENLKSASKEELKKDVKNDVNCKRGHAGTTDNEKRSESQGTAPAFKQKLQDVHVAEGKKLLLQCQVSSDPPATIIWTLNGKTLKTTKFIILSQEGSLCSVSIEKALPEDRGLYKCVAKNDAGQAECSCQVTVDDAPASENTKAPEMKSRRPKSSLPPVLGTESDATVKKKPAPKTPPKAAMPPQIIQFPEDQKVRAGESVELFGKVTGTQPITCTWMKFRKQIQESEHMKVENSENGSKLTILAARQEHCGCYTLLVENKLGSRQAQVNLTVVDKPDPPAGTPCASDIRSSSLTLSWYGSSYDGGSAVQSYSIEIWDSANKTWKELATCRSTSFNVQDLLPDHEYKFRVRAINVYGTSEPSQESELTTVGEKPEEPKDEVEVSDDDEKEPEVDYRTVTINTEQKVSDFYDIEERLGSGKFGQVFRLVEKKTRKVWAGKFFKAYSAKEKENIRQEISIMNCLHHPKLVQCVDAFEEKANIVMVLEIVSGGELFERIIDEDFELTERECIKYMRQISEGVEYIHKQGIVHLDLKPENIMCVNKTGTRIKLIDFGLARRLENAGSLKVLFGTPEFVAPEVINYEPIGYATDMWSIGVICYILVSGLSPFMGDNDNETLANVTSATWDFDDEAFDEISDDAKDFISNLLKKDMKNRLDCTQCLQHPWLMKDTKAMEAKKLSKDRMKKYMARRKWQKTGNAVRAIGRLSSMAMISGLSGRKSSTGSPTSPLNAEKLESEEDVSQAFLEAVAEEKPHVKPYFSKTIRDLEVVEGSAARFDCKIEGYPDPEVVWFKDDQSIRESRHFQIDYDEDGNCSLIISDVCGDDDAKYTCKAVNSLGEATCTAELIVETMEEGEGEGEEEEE

Turning to `O=c1[nH]c(=O)c2[nH]c(=O)[nH]c2[nH]1` [UA, uric acid], the Kd in experiment [1] was determined as 312 µM; in experiment [2], 257 µM.

In general, Kd refers to the equilibrium constant for the complex coming apart. Read a low Kd as higher affinity.
